Consider nine compounds from patent US5306808A, “Peptide derivatives having vasodilating activity” (Takeda Chemical Industries, Ltd., priority 1991, dated 1994).

One test deals with endothelin receptor. Kind of test: Assay of affinity for receptor (I125-ET-1 binding to porcine myocardial membrane fraction). To be noted: ET-1 = 100. As for the experimental part:
A membrane fraction prepared from the porcine heart was diluted to 0.15 mg/ml by using a buffer solution [PBS (pH 7.4) containing 0.5 mM CaCl2, 1.0 mM MgCl2, 0.02% NaN3, 0.1% BSA (fraction V, Sigma), 0.1 mM PMSF and 0.1 μg/ml pepstatin (binding buffer)] for assay, and 100 μl of the resulting suspension of the membrane fraction was poured into each assay tube to use for assay. To this suspension of the membrane fraction were added 2 μl of an endothelin-1 solution labeled with 5 μM radioactive iodine. Further, 3 μl of a test peptide solution was added thereto, followed by maintenance at a temperature of 25° C. for 1 hour. Then, the resulting suspension was diluted with 900 μl of the buffer solution for assay cooled with ice, and thereafter separated into a supernatant and a precipitate by centrifugation at 12,000×g for 10 minutes. Cell membranes and an endothelin receptor embedded therein were contained in the precipitate, and radioactive iodine-labeled endothelin combined with the receptor was also recovered in the precipitate. Accordingly, the amount of radioactive iodine-labeled endothelin combined with the endothelin receptor was determined by measuring the amount of radioactive iodine contained in the precipitate with a gamma-ray counter. Compounds in which the affinity for the endothelin receptor is high and the maximum constriction is not high are antagonists. Contrary to this, compounds in which the affinity for the endothelin receptor is high and the maximum constriction is high are agonists.

Test [1] has as its system porcine coronary smooth muscles (constriction due to endothelin-1). Kind of test: Assay of constriction suppressing activity to porcine coronary smooth muscles. To be noted: Sample: constriction due to 10^-9 M ET-1 in the presence of 10^-5 sample; Control: constriction due to 10^-9 M ET-1; formula shown only as drawing 9. Type of test: cell-based. Here is the method: Its tension was detected by a force displacement transducer UL-10GR (Minebea), and recorded by a polygraph (NEC Sanei). […] A tension of 1.25 to 1.5 g was applied to each of the strips, followed by equilibration for 1.5 hours. 60 mM KCl was repeatedly applied thereto at intervals of 30 minutes until the constriction response became constant. After additional equilibration for 1.5 hours, a sample for assay was given. The constriction of the strips was normalized by the constriction response of the individual strips to 60 mM KCl and statistically processed.

The subject of the next test is porcine coronary artery. The format is cell-based. The conditions noted are these: for Constrictor activity (Relative potency): ET-1 = 100; for Maximum Constriction (% 60 mM KCl): normalized to constriction response to 60 mM KCl. As for the experimental part: Each of helical strips 2 mm×15 mm prepared from the coronary right ramus circumflexus from which the adventitial connective tissues and the endothelial cells were removed was set to each of 4 ml organ baths. Its tension was detected by a force displacement transducer UL-10GR (Minebea), and recorded by a polygraph (NEC Sanei). The organ baths were maintained at 37° C., and filled with a Krebs-Henseleit solution (composition:118 mM NaCl, 4.7 mM KCl, 2.5 mM CaCl2, 1.2 mM KH2 PO4, 25.0 mM NaHCO3, 1.2 mM MgSO4, 10.0 mM glucose) gassed with 95% O2 and 5% CO2.
A tension of 1.25 to 1.5 g was applied to each of the strips, followed by equilibration for 1.5 hours. 60 mM KCl was repeatedly applied thereto at intervals of 30 minutes until the constriction response became constant. After additional equilibration for 1.5 hours, a sample for assay was given. The constriction of the strips was normalized by the constriction response of the individual strips to 60 mM KCl and statistically processed.
(2) As to the antagonist property or the agonist property of the peptide derivatives of present invention to endothelin, the affinity for an endothelin receptor and the constrictor activity to porcine coronary smooth muscles (according to the method described in (1) described above) were assayed. The affinity for the receptor was assayed by the following method.

Where a SMILES comes first, the peptide text is derived from it. Bridges are numbered along the chain shown (N, C = ends). Where no end group is shown, it is not given here. [ ]: non-standard residue; d: D form. tBuAla = CC(C)(C)C[C@H](N)C(=O)O Bounds are passed on as bounds.

As to `CC[C@H](C)[C@H](NC(=O)[C@H](CC(=O)O)NC(=O)[C@H](CC(C)C)NC(=O)[C@H](Cc1c[nH]cn1)NC(=O)[C@@H]1CSSC[C@H](N)C(=O)N[C@@H](CO)C(=O)N[C@@H](Cc2ccccc2)C(=O)N[C@@H](CO)C(=O)N[C@@H](CO)C(=O)N[C@@H](CC(C)C)C(=O)N[C@@H](CCSC)C(=O)N[C@@H](CC(=O)O)C(=O)N[C@@H](CCCCN)C(=O)N[C@@H](CCC(=O)O)C(=O)N[C@@H](Cc2ccccc2)C(=O)N[C@@H](C(C)C)C(=O)N[C@@H](Cc2ccc(O)cc2)C(=O)N[C@@H](Cc2ccccc2)C(=O)N1)C(=O)N[C@H](C(=O)N[C@@H](Cc1c[nH]c2ccccc12)C(=O)O)[C@@H](C)CC` [Example 1, [Phe^3,11]-ET-1] (H-CSFSSLMDKEFVYFCHLDIIW-OH; disulfide 1-15), the “Receptor binding activity (Relative potency)” value with endothelin receptor is 0.45. Moreover, the “Suppressing activity to ET-1” value in test [1] was 77. Moreover, in the test on porcine coronary artery, the “Constrictor activity (Relative potency)” value was less than 0.3 and the “Maximum Constriction (% 60 mM KCl)” value was 9 % 60 mM KCl.
In the same order, the values of `CC[C@H](C)[C@H](NC(=O)[C@H](CC(=O)O)NC(=O)[C@H](CC(C)C)NC(=O)[C@H](Cc1c[nH]cn1)NC(=O)[C@@H]1CSSC[C@H](N)C(=O)N[C@@H](CO)C(=O)N[C@@H](Cc2ccccc2)C(=O)N[C@@H](CO)C(=O)N[C@@H](CO)C(=O)N[C@@H](CC(C)C)C(=O)N[C@@H](CCSC)C(=O)N[C@@H](CC(=O)O)C(=O)N[C@@H](CCCCN)C(=O)N[C@@H](CCC(=O)O)C(=O)N[C@@H](C)C(=O)N[C@@H](C(C)C)C(=O)N[C@@H](Cc2ccc(O)cc2)C(=O)N[C@@H](Cc2ccccc2)C(=O)N1)C(=O)N[C@H](C(=O)N[C@@H](Cc1c[nH]c2ccccc12)C(=O)O)[C@@H](C)CC` [Example 2, [Phe^3, Ala^11]-ET-1] (H-CSFSSLMDKEAVYFCHLDIIW-OH; disulfide 1-15) are 0.5, 87, less than 0.1 and 10 % 60 mM KCl.
In the case of `CC[C@H](C)[C@H](NC(=O)[C@H](CC(C)(C)C)NC(=O)[C@H](CC(C)C)NC(=O)[C@H](Cc1c[nH]cn1)NC(=O)[C@@H]1CSSC[C@H](N)C(=O)N[C@@H](CO)C(=O)N[C@H]2CSSC[C@H](NC(=O)[C@H](CCC(=O)O)NC(=O)[C@H](CCCCN)NC(=O)[C@H](CC(=O)O)NC(=O)[C@H](CCSC)NC(=O)[C@H](CC(C)C)NC(=O)[C@H](CO)NC(=O)[C@H](CO)NC2=O)C(=O)N[C@@H](C(C)C)C(=O)N[C@@H](Cc2ccc(O)cc2)C(=O)N[C@@H](Cc2ccccc2)C(=O)N1)C(=O)N[C@H](C(=O)N[C@@H](Cc1c[nH]c2ccccc12)C(=O)O)[C@@H](C)CC` [Example 45, [γ-Leu^18]-ET-1] (H-CSCSSLMDKECVYFCHL[tBuAla]IIW-OH; disulfide 1-15, 3-11), the “Receptor binding activity (Relative potency)” value with endothelin receptor stood at 1.0. In addition, in the test on porcine coronary artery, the “Constrictor activity (Relative potency)” value is recorded as less than 0.1 and the “Maximum Constriction (% 60 mM KCl)” value stood at 3 % 60 mM KCl.
In the same order, the values of `CC[C@H](C)[C@H](NC(=O)[C@H](CCC(=O)O)NC(=O)[C@H](CC(C)C)NC(=O)[C@H](Cc1c[nH]cn1)NC(=O)[C@@H]1CSSC[C@H](N)C(=O)N[C@@H](CO)C(=O)N[C@H]2CSSC[C@H](NC(=O)[C@H](CCC(=O)O)NC(=O)[C@H](CCCCN)NC(=O)[C@H](CC(=O)O)NC(=O)[C@H](CCSC)NC(=O)[C@H](CC(C)C)NC(=O)[C@H](CO)NC(=O)[C@H](CO)NC2=O)C(=O)N[C@@H](C(C)C)C(=O)N[C@@H](Cc2ccc(O)cc2)C(=O)N[C@@H](Cc2ccccc2)C(=O)N1)C(=O)N[C@H](C(=O)N[C@@H](Cc1c[nH]c2ccccc12)C(=O)O)[C@@H](C)CC` [Example 46, [Glu^18]-ET-1] (H-CSCSSLMDKECVYFCHLEIIW-OH; disulfide 1-15, 3-11) are 3.2, less than 0.1 and 6 % 60 mM KCl.
In the same order, the values of `CC[C@H](C)[C@H](NC(=O)[C@@H](NC(=O)[C@H](CC(C)C)NC(=O)[C@H](Cc1c[nH]cn1)NC(=O)[C@@H]1CSSC[C@H](N)C(=O)N[C@@H](CO)C(=O)N[C@H]2CSSC[C@H](NC(=O)[C@H](CCC(=O)O)NC(=O)[C@H](CCCCN)NC(=O)[C@H](CC(=O)O)NC(=O)[C@H](CCSC)NC(=O)[C@H](CC(C)C)NC(=O)[C@H](CO)NC(=O)[C@H](CO)NC2=O)C(=O)N[C@@H](C(C)C)C(=O)N[C@@H](Cc2ccc(O)cc2)C(=O)N[C@@H](Cc2ccccc2)C(=O)N1)[C@@H](C)O)C(=O)N[C@H](C(=O)N[C@@H](Cc1c[nH]c2ccccc12)C(=O)O)[C@@H](C)CC` [Example 51, [Thr^18]-ET-1] (H-CSCSSLMDKECVYFCHLTIIW-OH; disulfide 1-15, 3-11) are 100, 26 and 76 % 60 mM KCl.
In the same order, the values of `CC[C@H](C)[C@H](NC(=O)[C@H](CC(=O)O)NC(=O)[C@H](CC(C)C)NC(=O)[C@H](Cc1c[nH]cn1)NC(=O)[C@@H]1CSSC[C@H](N)C(=O)N[C@@H](CO)C(=O)N[C@@H](CC(C)C)C(=O)N[C@@H](CO)C(=O)N[C@@H](CO)C(=O)N[C@@H](CC(C)C)C(=O)N[C@@H](CCSC)C(=O)N[C@@H](CC(=O)O)C(=O)N[C@@H](CCCCN)C(=O)N[C@@H](CCC(=O)O)C(=O)N[C@@H](C)C(=O)N[C@@H](C(C)C)C(=O)N[C@@H](Cc2ccc(O)cc2)C(=O)N[C@@H](Cc2ccccc2)C(=O)N1)C(=O)N[C@H](C(=O)N[C@@H](Cc1c[nH]c2ccccc12)C(=O)O)[C@@H](C)CC` [Example 52, [Leu^3, Ala^11]-ET-1] (H-CSLSSLMDKEAVYFCHLDIIW-OH; disulfide 1-15) are 0.35, less than 0.1 and 6 % 60 mM KCl.
Regarding “[Asn^18 ]-ET-1 (CSCSSLMDKECVYFCHLNIIW; ends and bridges not checked; cysteine pairing not given here; UniProt P05305 53-73, looked up, variant D18N) [Example 35]”, the “Receptor binding activity (Relative potency)” value with endothelin receptor worked out at 9.1. In the test on porcine coronary artery, the “Constrictor activity (Relative potency)” value is less than 0.1 and the “Maximum Constriction (% 60 mM KCl)” value is given as 43 % 60 mM KCl.
In the same order, the values of “[Trp^3,11 ]-ET-1 (CSWSSLMDKEWVYFCHLDIIW; ends and bridges not checked; cysteine pairing not given here; UniProt P05305 53-73, looked up, variant C3W C11W) [Example 4]” are 0.27, less than 0.1 and 10 % 60 mM KCl.
In the same order, the values of “[Val^3,Ala^11 ]-ET-1 (CSVSSLMDKEAVYFCHLDIIW; ends and bridges not checked; cysteine pairing not given here; UniProt P05305 53-73, looked up, variant C3V C11A) [Example 41]” are 4.5, 73 and 130 % 60 mM KCl.
